Measurements taken from patent US8247211B2, “Glycopeptide antibiotics” (American Cyanamid Company, priority 2001, dated 2012).
Converted amounts (≈) assume the structure as drawn. Numbered stars: 1 amine (or outer) side, 2 acyl side, 3 side chain; on linkers, the order of the positions; unused ones are H or OH. Square brackets hold non-standard residues; d marks the D form. Peptide text beside a SMILES is read from it. * marks the point of attachment. ξ: configuration not given here. X1 = N=C1NCC(C(O)C(N[*:1])C(=O)[*:2])N1C1OC(CO)C(O)C(O)C1O; ξEnduracididine(βξ-OH,4'ξ) = N=C1NCC(C(O)C(N)C(=O)O)N1; X2 = OCC1OC(OC2C(CO)OC(*)C(O)C2O)C(O)C(O)C1O; ξCha(3ξ-Me) = CC(C1CCCCC1)C(N)C(=O)O

Legend:
Experiment in all cases: In vitro antibacterial evaluation: minimum inhibitory concentration (MIC), broth dilution method
Assay type in all cases: cell-based
Escherichia coli = settings: broth dilution, 18 hours at 35° C.
Streptococcus sp. = settings: broth dilution, 18 hours at 35° C.
In short: (§1)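 Values are minimum inhibitory concentrations, meaning the smallest antibiotic concentration that stops growth of the organism. They come from broth dilution in Muller-Hinton II […] per NCCLS guidance (M7-A2), using 5×10^5 CFU/mL and concentrations from 64 to 0.06 μg/mL.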

Enterococcus sp. = settings: broth dilution, 18 hours at 35° C.
In short: as §1

Staphylococcus sp. = settings: broth dilution, 18 hours at 35° C.; for MIC Staphylococcus aureus-SMITH (GC 4543): strain SMITH GC 4543
In short: as §1

[1] = Streptococcus agalactiae (GC 4564)
[2] = Streptococcus pneumoniae (ATCC 6301)
[3] = Streptococcus pneumoniae (GC 1894)
[4] = Streptococcus pneumoniae (GC 4565)
[5] = Streptococcus pyogenes (GC 4563)
[6] = Enterococcus faecalis (ATCC 29212)
[7] = Enterococcus faecalis (GC 2242)
[8] = Enterococcus faecalis (GC 2691)
[9] = Enterococcus faecalis (GC 3059)
[10] = Enterococcus faecalis (GC 4552)
[11] = Enterococcus faecalis (GC 4553)
[12] = Enterococcus faecalis (GC 4554)
[13] = Enterococcus faecalis (GC 6189)

CC(c1ccccc1)C1NC(=O)CNC(=O)C(CO)NC(=O)C(C(O)C2CNC(=N)N2C2OC(CO)C(O)C(O)C2O)NC(=O)C(C(O)C2CNC(=N)N2)NC(=O)C(Cc2ccc3oc(SCC(=O)c4ccc(Cl)cc4)nc3c2)NC1=O (stereo not shown) [Example 49]
MIC Escherichia coli (ATCC 25922) (Escherichia coli): 16 µg/mL (≈ 13.6 µM)
MIC Escherichia coli (GC 4559) (Escherichia coli): 8 µg/mL (≈ 6.78 µM)
MIC Escherichia coli (GC 4560) (Escherichia coli): 4 µg/mL (≈ 3.39 µM)
MIC Streptococcus agalactiae (GC 4564) (Streptococcus sp.; [1]): 4 µg/mL (≈ 3.39 µM)
MIC Streptococcus pneumoniae (ATCC 6301) (Streptococcus sp.; [2]): 8 µg/mL (≈ 6.78 µM)
MIC Streptococcus pneumoniae (GC 1894) (Streptococcus sp.; [3]): 8 µg/mL (≈ 6.78 µM)
MIC Streptococcus pneumoniae (GC 4565) (Streptococcus sp.; [4]): 8 µg/mL (≈ 6.78 µM)
MIC Streptococcus pyogenes (GC 4563) (Streptococcus sp.; [5]): 2 µg/mL (≈ 1.69 µM)
MIC Streptococcus agalactiae (GC 4564) (Streptococcus sp.): 4 µg/mL (≈ 3.39 µM)
MIC Streptococcus pneumoniae (ATCC 6301) (Streptococcus sp.): 8 µg/mL (≈ 6.78 µM)
MIC Streptococcus pneumoniae (GC 1894) (Streptococcus sp.): 8 µg/mL (≈ 6.78 µM)
MIC Streptococcus pneumoniae (GC 4565) (Streptococcus sp.): 8 µg/mL (≈ 6.78 µM)
MIC Streptococcus pyogenes (GC 4563) (Streptococcus sp.): 2 µg/mL (≈ 1.69 µM)
MIC Enterococcus avium (GC 4558) (Enterococcus sp.; Enterococcus avium (GC 4558)): 4 µg/mL (≈ 3.39 µM)
MIC Enterococcus faecalis (ATCC 29212) (Enterococcus sp.; [6]): 16 µg/mL (≈ 13.6 µM)
MIC Enterococcus faecalis (GC 2242) (Enterococcus sp.; [7]): 16 µg/mL (≈ 13.6 µM)
MIC Enterococcus faecalis (GC 2691) (Enterococcus sp.; [8]): 16 µg/mL (≈ 13.6 µM)
MIC Enterococcus faecalis (GC 3059) (Enterococcus sp.; [9]): 32 µg/mL (≈ 27.1 µM)
MIC Enterococcus faecalis (GC 4552) (Enterococcus sp.; [10]): 2 µg/mL (≈ 1.69 µM)
MIC Enterococcus faecalis (GC 4553) (Enterococcus sp.; [11]): 4 µg/mL (≈ 3.39 µM)
MIC Enterococcus faecalis (GC 4554) (Enterococcus sp.; [12]): 16 µg/mL (≈ 13.6 µM)
MIC Enterococcus faecalis (GC 6189) (Enterococcus sp.; [13]): 16 µg/mL (≈ 13.6 µM)
MIC Enterococcus faecium (GC 2243) (Enterococcus sp.; Enterococcus faecium (GC 2243)): 8 µg/mL (≈ 6.78 µM)
MIC Enterococcus faecium (GC 4556) (Enterococcus sp.; Enterococcus faecium (GC 4556)): 8 µg/mL (≈ 6.78 µM)
MIC Enterococcus faecium (GC 4557) (Enterococcus sp.; Enterococcus faecium (GC 4557)): 2 µg/mL (≈ 1.69 µM)
MIC Enterococcus avium (GC 4558) (Enterococcus sp.): 4 µg/mL (≈ 3.39 µM)
MIC Enterococcus faecalis (ATCC 29212) (Enterococcus sp.): 16 µg/mL (≈ 13.6 µM)
MIC Enterococcus faecalis (GC 2242) (Enterococcus sp.): 16 µg/mL (≈ 13.6 µM)
MIC Enterococcus faecalis (GC 2691) (Enterococcus sp.): 16 µg/mL (≈ 13.6 µM)
MIC Enterococcus faecalis (GC 3059) (Enterococcus sp.): 32 µg/mL (≈ 27.1 µM)
MIC Enterococcus faecalis (GC 4552) (Enterococcus sp.): 2 µg/mL (≈ 1.69 µM)
MIC Enterococcus faecalis (GC 4553) (Enterococcus sp.): 4 µg/mL (≈ 3.39 µM)
MIC Enterococcus faecalis (GC 4554) (Enterococcus sp.): 16 µg/mL (≈ 13.6 µM)
MIC Enterococcus faecalis (GC 6189) (Enterococcus sp.): 16 µg/mL (≈ 13.6 µM)
MIC Enterococcus faecium (GC 2243) (Enterococcus sp.): 8 µg/mL (≈ 6.78 µM)
MIC Enterococcus faecium (GC 4556) (Enterococcus sp.): 8 µg/mL (≈ 6.78 µM)
MIC Enterococcus faecium (GC 4557) (Enterococcus sp.): 2 µg/mL (≈ 1.69 µM)
MIC Coagulase Negative Staphylococcus (GC 4547) (Staphylococcus sp.): 4 µg/mL (≈ 3.39 µM)
MIC Coagulase Negative Staphylococcus (GC 4548) (Staphylococcus sp.): 2 µg/mL (≈ 1.69 µM)
MIC Coagulase Negative Staphylococcus (GC 4549) (Staphylococcus sp.): 1 µg/mL (≈ 0.847 µM)
MIC Coagulase Negative Staphylococcus (GC 4551) (Staphylococcus sp.): 4 µg/mL (≈ 3.39 µM)
MIC Staphylococcus aureus SMITH (GC 4543) (Staphylococcus sp.): 2 µg/mL (≈ 1.69 µM)
MIC Staphylococcus haemolyticus (GC 4546) (Staphylococcus sp.): 1 µg/mL (≈ 0.847 µM)
MIC Staphylococcus aureus-SMITH (GC 4543) (Staphylococcus sp.): 2 µg/mL (≈ 1.69 µM)

CC(C1CCCCC1)C1NC(=O)CNC(=O)C(CO)NC(=O)C(C(O)C2CNC(=N)N2C2OC(CO)C(O)C(O)C2O)NC(=O)C(C(O)C2CNC(=N)N2)NC(=O)C(Cc2ccc(OC3OC(CO)C(OC4OC(CO)C(O)C(O)C4O)C(O)C3O)cc2)NC1=O (stereo not drawn) [Example 51, Cyclo[3-cyclohexyl-2-aminobutyl-O-(4-O-hexopyranosylhexopyranosyl)tyrosyl-3-(2-iminoimidazolidin-4-yl)seryl-3-(3-hexopyranosyl-2-iminoimidazolidin-4-yl)-serylserylglycyl]] (cyclo(G[ξCha(3ξ-Me)]Y(X2)[ξEnduracididine(βξ-OH,4'ξ)][X1]S); configuration not given here)
MIC Escherichia coli (ATCC 25922) (Escherichia coli): >64 µg/mL
MIC Escherichia coli (GC 4559) (Escherichia coli): 64 µg/mL (≈ 49.2 µM)
MIC Escherichia coli (GC 4560) (Escherichia coli): 8 µg/mL (≈ 6.15 µM)
MIC Streptococcus agalactiae (GC 4564) (Streptococcus sp.; [1]): 16 µg/mL (≈ 12.3 µM)
MIC Streptococcus pneumoniae (ATCC 6301) (Streptococcus sp.; [2]): 8 µg/mL (≈ 6.15 µM)
MIC Streptococcus pneumoniae (GC 1894) (Streptococcus sp.; [3]): 4 µg/mL (≈ 3.07 µM)
MIC Streptococcus pneumoniae (GC 4565) (Streptococcus sp.; [4]): 8 µg/mL (≈ 6.15 µM)
MIC Streptococcus pyogenes (GC 4563) (Streptococcus sp.; [5]): 8 µg/mL (≈ 6.15 µM)
MIC Streptococcus agalactiae (GC 4564) (Streptococcus sp.): 16 µg/mL (≈ 12.3 µM)
MIC Streptococcus pneumoniae (ATCC 6301) (Streptococcus sp.): 8 µg/mL (≈ 6.15 µM)
MIC Streptococcus pneumoniae (GC 1894) (Streptococcus sp.): 4 µg/mL (≈ 3.07 µM)
MIC Streptococcus pneumoniae (GC 4565) (Streptococcus sp.): 8 µg/mL (≈ 6.15 µM)
MIC Streptococcus pyogenes (GC 4563) (Streptococcus sp.): 8 µg/mL (≈ 6.15 µM)
MIC Enterococcus avium (GC 4558) (Enterococcus sp.; Enterococcus avium (GC 4558)): 64 µg/mL (≈ 49.2 µM)
MIC Enterococcus faecalis (ATCC 29212) (Enterococcus sp.; [6]): >64 µg/mL
MIC Enterococcus faecalis (GC 2242) (Enterococcus sp.; [7]): 64 µg/mL (≈ 49.2 µM)
MIC Enterococcus faecalis (GC 2691) (Enterococcus sp.; [8]): >64 µg/mL
MIC Enterococcus faecalis (GC 3059) (Enterococcus sp.; [9]): >64 µg/mL
MIC Enterococcus faecalis (GC 4552) (Enterococcus sp.; [10]): >64 µg/mL
MIC Enterococcus faecalis (GC 4553) (Enterococcus sp.; [11]): >64 µg/mL
MIC Enterococcus faecalis (GC 4554) (Enterococcus sp.; [12]): >64 µg/mL
MIC Enterococcus faecalis (GC 6189) (Enterococcus sp.; [13]): >64 µg/mL
MIC Enterococcus faecium (GC 2243) (Enterococcus sp.; Enterococcus faecium (GC 2243)): >64 µg/mL
MIC Enterococcus faecium (GC 4556) (Enterococcus sp.; Enterococcus faecium (GC 4556)): >64 µg/mL
MIC Enterococcus faecium (GC 4557) (Enterococcus sp.; Enterococcus faecium (GC 4557)): 16 µg/mL (≈ 12.3 µM)
MIC Enterococcus avium (GC 4558) (Enterococcus sp.): 64 µg/mL (≈ 49.2 µM)
MIC Enterococcus faecalis (ATCC 29212) (Enterococcus sp.): >64 µg/mL
MIC Enterococcus faecalis (GC 2242) (Enterococcus sp.): 64 µg/mL (≈ 49.2 µM)
MIC Enterococcus faecalis (GC 2691) (Enterococcus sp.): >64 µg/mL
MIC Enterococcus faecalis (GC 3059) (Enterococcus sp.): >64 µg/mL
MIC Enterococcus faecalis (GC 4552) (Enterococcus sp.): >64 µg/mL
MIC Enterococcus faecalis (GC 4553) (Enterococcus sp.): >64 µg/mL
MIC Enterococcus faecalis (GC 4554) (Enterococcus sp.): >64 µg/mL
MIC Enterococcus faecalis (GC 6189) (Enterococcus sp.): >64 µg/mL
MIC Enterococcus faecium (GC 2243) (Enterococcus sp.): >64 µg/mL
MIC Enterococcus faecium (GC 4556) (Enterococcus sp.): >64 µg/mL
MIC Enterococcus faecium (GC 4557) (Enterococcus sp.): 16 µg/mL (≈ 12.3 µM)
MIC Coagulase Negative Staphylococcus (GC 4547) (Staphylococcus sp.): 16 µg/mL (≈ 12.3 µM)
MIC Coagulase Negative Staphylococcus (GC 4548) (Staphylococcus sp.): 16 µg/mL (≈ 12.3 µM)
MIC Coagulase Negative Staphylococcus (GC 4549) (Staphylococcus sp.): 4 µg/mL (≈ 3.07 µM)
MIC Coagulase Negative Staphylococcus (GC 4551) (Staphylococcus sp.): 64 µg/mL (≈ 49.2 µM)
MIC Staphylococcus aureus SMITH (GC 4543) (Staphylococcus sp.): 32 µg/mL (≈ 24.6 µM)
MIC Staphylococcus haemolyticus (GC 4546) (Staphylococcus sp.): 32 µg/mL (≈ 24.6 µM)
MIC Staphylococcus aureus-SMITH (GC 4543) (Staphylococcus sp.): 32 µg/mL (≈ 24.6 µM)
